Experimental data from ChEMBL document CHEMBL1157662, “Antimalarial and antileishmanial activities of histone deacetylase inhibitors with triazole-linked cap group” (Bioorg Med Chem, 2010).
Converted amounts (≈) assume the structure as drawn. The source made the active and inactive calls. No cut-off for these calls is given here.

Columns and labels:
Leishmania donovani [1] = test: Antileishmanial activity against Leishmania donovani promastigotes after 72 hrs by alamar blue assay; assay type: functional, organism-based
[2] = Selectivity index, ratio of IC50 for african green monkey (Cercopithecus aethiops) Vero cells to IC50 for chloroquine-resistant Plasmodium falciparum W2
Plasmodium falciparum [3] = test: Ratio of suberoylanilide hydroxamic acid IC50 to compound IC50 for chloroquine-resistant Plasmodium falciparum W2 infected in […]; assay type: functional
Plasmodium falciparum [4] = test: microbe, parasite or virus in culture; assay type: functional, organism-based, W2, Vero
Description: Antimalarial activity against chloroquine-resistant Plasmodium falciparum W2 infected in African green monkey (Cercopithecus aethiops) Vero cells assessed as parasite LDH activity after 72 hrs by Malstat reagent method

Plasmodium falciparum [5] = test: Ratio of suberoylanilide hydroxamic acid IC50 to compound IC50 for chloroquine-sensitive Plasmodium falciparum D6 infected in […]; assay type: functional
Vero = test: Cytotoxicity against african green monkey Vero cells after 1 to 2 days by neutral red assay; assay type: ADME, cell-based, Chlorocebus sabaeus
[6] = Selectivity index, ratio of IC50 for african green monkey (Cercopithecus aethiops) Vero cells to IC50 for chloroquine-sensitive Plasmodium falciparum D6
Plasmodium falciparum [7] = test: microbe, parasite or virus in culture; conditions: D6, Vero, 72 h
Description: (§1) Antimalarial activity against chloroquine-sensitive Plasmodium falciparum D6 infected in African green monkey (Cercopithecus aethiops) Vero cells assessed as parasite LDH activity after 72 hrs by Malstat reagent method

Plasmodium falciparum [8] = conditions: vero
Description: as §1

Leishmania donovani [9] = tested on: Leishmania donovani
Leishmania donovani [10] = test: Ratio of suberoylanilide hydroxamic acid IC50 to compound IC50 for Leishmania donovani promastigotes; assay type: functional
Leishmania donovani [11] = test: Ratio of suberoylanilide hydroxamic acid IC50 to compound IC50 for Leishmania donovani promastigotes
[12] = Leishmania donovani, 72 h, read-out: IC50
[13] = Plasmodium falciparum, W2, Vero, 72 h, read-out: IC50
[14] = Chlorocebus sabaeus, Vero, read-out: IC50

| SMILES | IC90 (Leishmania donovani [1]; Leishmania donovani, 72 h) | IC50 (Leishmania donovani [1]; [12]) | selectivity ratio [2] | Ratio IC50 (Plasmodium falciparum [3]) | IC50 (Plasmodium falciparum [4]; [13]) | Ratio IC50 (Plasmodium falciparum [5]) | IC50 (Vero; [14]) | selectivity ratio [6] | IC50 (Plasmodium falciparum [7]) | IC50 (Plasmodium falciparum [8]) | IC50 (Leishmania donovani [1]) | IC90 (Leishmania donovani [9]) | IC50 (Plasmodium falciparum [4]; vero) | IC50 (Vero; vero) | Ratio (Leishmania donovani [10]) | IC50 ratio (Leishmania donovani [11]) |
| --- | --- | --- | --- | --- | --- | --- | --- | --- | --- | --- | --- | --- | --- | --- | --- | --- |
| COc1ccc2cc(-c3cn(CCCCCCC(=O)NO)nn3)ccc2c1 | > 40 mg/L | 18.5 mg/L (≈ 50.2 µM) | 50 | 5 | 0.053 mg/L (≈ 0.144 µM) | 5 | 2.65 mg/L (≈ 7.19 µM) | 55.8 | 0.0475 mg/L (≈ 0.129 µM) | – | – | – | – | – | – | – |
| COc1ccc2cc(-c3cn(CCCCCC(=O)NO)nn3)ccc2c1 | > 40 mg/L | 18 mg/L (≈ 50.8 µM) | > 91.9 | 5 | 0.031 mg/L (≈ 0.0875 µM) | 5 | 2.85 mg/L (≈ 8.04 µM) | > 81.4 | 0.035 mg/L (≈ 0.0988 µM) | – | – | – | – | – | – | – |
| COc1cccc(-c2cn(CCCCCC(=O)NO)nn2)c1 | – | – | – | – | – | – | – | – | – | Not Active | Not Active | inactive | Not Active | Non-toxic | – | – |
| O=C(CCCCCn1cc(-c2ccc3ccccc3n2)nn1)NO | 39 mg/L (≈ 120 µM) | 9.5 mg/L (≈ 29.2 µM) | 70.6 | 5 | 0.034 mg/L (≈ 0.104 µM) | 5 | 2.4 mg/L (≈ 7.38 µM) | 72.7 | 0.033 mg/L (≈ 0.101 µM) | – | – | – | – | – | 2 | 2 |
| O=C(CCCCCn1cc(-c2ccc3cccnc3c2)nn1)NO | > 40 mg/L | 18.5 mg/L (≈ 56.9 µM) | > 144 | 5 | 0.033 mg/L (≈ 0.101 µM) | 5 | – | > 90.7 | 0.0525 mg/L (≈ 0.161 µM) | – | – | – | – | Non-toxic | – | – |
